Results on 2 molecules are retold here after EP0799174B1, “BIOCIDAL ALCOHOLS, THEIR PRODUCTION AND THEIR USE” (SCHÜLKE & MAYR GMBH, priority 1994, dated 1996).

SMILES strings stand for the structures.

Assay [1] relates to Trichophyton mentagrophytes. In words: Foot spray: agar diffusion test. Format: cell-based. Particulars: foot spray formula with aromatic alcohol 0.2 %. The source says:
(§1) Formula: • 2-propanol 40.0% • aromatic alcohol 0.2 % • allantoin 0.5 % • dem. water to 100 Test germs: special skin fungi such as Trichophyton rubrum, Trichophyton mentagrophytes (ATCC 9533), Microsporon gypseum Test method: Determination of the minimum inhibition concentration (method see under 1.) Data in % Test germs: special skin fungi such as Trichophyton rubrum, Trichophyton mentagrophytes, Microsporon gypseum Test method: Agar diffusion test Data as millimetres inhibition zone
On the technique in general: Agar diffusion results depend on both activity and mobility in agar.

In assay [2] the test system is Trichophyton rubrum. The assay can be described thus: Foot spray: agar diffusion test. Format: cell-based. Particulars: foot spray formula with aromatic alcohol 0.2 %.
Excerpt: as §1

In assay [3] the test system is Microsporon gypseum. In words: Foot spray: agar diffusion test. To be noted: foot spray formula with aromatic alcohol 0.2 %. The class given is cell-based.
Excerpt: as §1

Assay [4] deals with Aspergillus niger ATCC 6275. In words: MIC values, water-soluble (inhibition titre, dilution series in CSL). Format: cell-based.
Assay [5] concerns Trichophyton rubrum. In words: Foot spray: minimum inhibition concentration. Format: cell-based. To be noted: foot spray formula: 2-propanol 40.0%, aromatic alcohol 0.2 %, allantoin 0.5 %, dem. water to 100. The source says: (§2) Formula: • 2-propanol 40.0% • aromatic alcohol 0.2 % • allantoin 0.5 % • dem. water to 100 Test germs: special skin fungi such as Trichophyton rubrum, Trichophyton mentagrophytes (ATCC 9533), Microsporon gypseum Test method: Determination of the minimum inhibition concentration (method see under 1.) Data in %

Assay [6] concerns Trichophyton mentagrophytes (ATCC 9533). The assay can be described thus: Foot spray: minimum inhibition concentration. To be noted: foot spray formula: 2-propanol 40.0%, aromatic alcohol 0.2 %, allantoin 0.5 %, dem. water to 100. Format: cell-based.
Excerpt: as §2

Assay [7] deals with Microsporon gypseum. In words: Foot spray: minimum inhibition concentration. The class given is cell-based. Particulars: foot spray formula: 2-propanol 40.0%, aromatic alcohol 0.2 %, allantoin 0.5 %, dem. water to 100.
Excerpt: as §2

Assay [8] relates to Proteus vulgaris NCTC 4635. In words: MIC values, water-soluble (inhibition titre, dilution series in CSL). The class given is cell-based.
The test system of assay [9] is Mycobacterium terrae ATCC 15755. The assay can be described thus: Germ carrier experiment with standard cotton. Format: cell-based. Details: key: E: individual colonies; M: several colonies; +: weak growth; ++: moderate growth; +++: heavy growth; ++++: very heavy growth; ∞: lawn growth. To be noted: Rewopal MPG 40 25.0%, aromatic alcohol 2.0 %, dem. water to 100. How it is done:
• Rewopal MPG 40 25.0% • aromatic alcohol 2.0 % • dem. water to 100
The bacteria are elutriated with 5 ml CSL from a 24 h-old (37°C) culture onto CSA plates measuring approx. 9 cm in diameter, the suspension being diluted with CSL if necessary. The number of CFU/ml is to be determined using surface culture. It should be > 10^9/ml.
The sterilized and dried germ carriers are introduced into the bacterial suspension and left in it for 15 minutes, during which they are turned over twice.
A number (4) of contaminated, thoroughly impregnated germ carriers, corresponding to the proposed removal times - 15, 30, 60 and 120 minutes - is placed in a small dish and 10 ml of the disinfectant solution to be tested in WSH are poured over them. Air bubbles are to be removed by repeated turning of the germ carriers.
After the corresponding action times, the germ carriers are to be removed from the disinfectant solution, and after rinsing twice in each case for 1 min in 10 ml ML solution (see Appendix) to which the deactivating substances were optionally added, the germ carriers are placed onto the surface of a Löwenstein-Jensen nutrient medium with tweezers and moved backwards and forwards 3 to 4 times using light pressure. After inoculating the nutrient medium surface the small cloth is to remain lying directly above the condensed water level of the nutrient medium.
Germ carriers pre-treated in the same way, but kept in WSH for 120 minutes instead of in disinfectant solution are to be inoculated as a control. The inoculated tubes are incubated at 37°C for 3 weeks.

For assay [10], the system named is Penicillium funiculosum ATCC 36839. In words: MIC values, water-soluble (inhibition titre, dilution series in CSL). Format: cell-based.
Assay [11] deals with Microsporon luteus ATCC 15442. In words: Skin antiseptic a): test on skin of subjects, contamination after 1 h, ring method. The class given is in vivo. Particulars: aromatic alcohol 1.0% in 1-propanol 30.0%, 2-propanol 45.0%, 0.2 ml on 10cm^2 skin, germs removed after 15 minutes, average of all 10 subjects. How it is done: • 1-propanol 30.0% • 2-propanol 45.0% • aromatic alcohol 1.0% • dem. water to 100 Test germ: Microsporon luteus ATCC 15442 Test method: Apply 0.2 ml preparation to 10cm^2 skin, allow to dry, cover with TEGADERM® film and leave to work for 1 h, contaminate with 0.1 ml germ suspension, remove after 15 minutes with ring method Reference: Control against Neo-Kodan® Number of subjects: 10 subjects

The subject of assay [12] is Staphylococcus aureus ATCC 6538. The assay can be described thus: MIC values, water-soluble (inhibition titre, dilution series in CSL). The class given is cell-based. How it is done: (§3) Standard formulation: • Rewopal MPG 40 25.0 g • aromatic alcohol 10 mmol • dem.* water to 100 g • lactic acid for adjusting the pH value to 7.0 q.s.
(§4) In sterile test tubes, 5 ml each of the dilutions of the disinfectant in WSH (water of standardized hardness) are mixed with 5 ml double-concentrated casein peptone soybean flour peptone solution (CSL) or CSL and deactivating substances.
(§5) To determine the bacteriostatic action on Staphylococcus aureus and Proteus mirabilis the tubes are inoculated by adding 0.1 ml of a CSL culture diluted 1:10 with CSL and incubated for 24 h at 37°C.
(§6) To test the fungistatic action, 0.1 ml of an undiluted CSL culture of Candida albicans which has been incubated at 37°C for 72 h is used in each case. Evaluation takes place after 72 h at 37°C.
(§7) The highest dilution of the preparation in CSL or CSL and deactivating substances that still suppresses growth of the test germs after […] incubation serves as the measure of the multiplication-inhibiting action (inhibition titre).
(§8) In the case of the disinhibition tests, the culture media are to be adjusted to a pH value of 7.0 ± 0.2 according to the state of the disinfectant.
(§9) Standard formulation: • aromatic alcohol 5.0 % • Brij 58 5.0 % • 1,3-butanediol to 100 • Test germs: see above • Test method: see above

Assay [13] has as its system Candida albicans ATCC 10231. The assay is described as above. The class given is cell-based. How it is done:
as §3, §4, §5, §6, §7, §8, §9

[14] abbreviates: standard formulation: Rewopal MPG 40 25.0 g, aromatic alcohol 10 mmol, dem. water to 100 g, pH 7.0.
Setting [15] is: standard formulation: aromatic alcohol 5.0 %, Brij 58 5.0 %, 1,3-butanediol to 100.

Take `OCCCc1ccccc1` [Alcohol 1, 3-phenyl propanol, reference compound]: the “inhibition zone, T. mentagrophytes” value in assay [1] (use concentration 100%) is on record as 0 mm. For the same molecule, the “inhibition zone, T. rubrum” value in [2] (use concentration 100%) was 0 mm. The “inhibition zone, M. gypseum” value in [3] (use concentration 100%) is recorded as 0 mm. The “MIC (minimum inhibiting concentration) A. niger” value was 625 μmol/100 ml test solution in assay [4] (setting [14]) and 625 µmol/100 ml test solution in [4] (setting [15]). Also, the “minimum inhibition concentration, T. rubrum” value in [5] came out at 6.25%. Besides, in assay [6], the “minimum inhibition concentration, T. mentagrophytes” value turned out to be 6.25%. In [7], the “minimum inhibition concentration, M. gypseum” value came to 6.25%. The entries for the “MIC (minimum inhibiting concentration) P. vulgaris” value in assay [8] (setting [14]) and in assay [8] (setting [15]) were 625 μmol/100 ml test solution and 625 µmol/100 ml test solution, respectively. Besides, the “growth of M. terrae after action time 15'” value in [9] was “++++”. In addition, the “growth of M. terrae after action time 30'” value in assay [9] was “++++”. The “growth of M. terrae after action time 60'” value in assay [9] was “+++”. For the same molecule, the “growth of M. terrae after action time 120'” value in assay [9] is “+++”. The “MIC (minimum inhibiting concentration) P. funi.” value in [10] (setting [14]) came to 313 μmol/100 ml test solution; in [10] (setting [15]), 313 µmol/100 ml test solution. In addition, in assay [11], the “Average value of RF (reduction factors)” value is on record as 0 log stages. The “MIC (minimum inhibiting concentration) S. aureus” value in [12] (setting [14]) is given as 1,250 μmol/100 ml test solution; in [12] (setting [15]), 1,250 µmol/100 ml test solution. Further, the “MIC (minimum inhibiting concentration) C. albicans” value in [13] (setting [14]) is recorded as 625 μmol/100 ml test solution; in [13] (setting [15]) it was 625 µmol/100 ml test solution.
For `CCCCCC(=Cc1ccccc1)CO` [Alcohol 8, α-amyl cinnamyl alcohol], in assay [1] (use concentration 50%), the “inhibition zone, T. mentagrophytes” value was 14 mm. For the same molecule, the “inhibition zone, T. mentagrophytes” value in [1] (use concentration 100%) was found to be 22 mm. In addition, the “inhibition zone, T. rubrum” value in assay [2] (use concentration 50%) stood at 14 mm. In addition, the “inhibition zone, T. rubrum” value in [2] (use concentration 100%) was 23 mm. Moreover, in assay [3] (use concentration 50%), the “inhibition zone, M. gypseum” value came to 10 mm. Besides, the “inhibition zone, M. gypseum” value in assay [3] (use concentration 100%) came to 19 mm. The “MIC (minimum inhibiting concentration) A. niger” value in [4] (setting [14]) amounted to 156 μmol/100 ml test solution. Besides, the “minimum inhibition concentration, T. rubrum” value in assay [5] stood at 1.56%. Moreover, the “minimum inhibition concentration, T. mentagrophytes” value in assay [6] was 1.56%. The “minimum inhibition concentration, M. gypseum” value in [7] stood at 1.56%. Also, the “MIC (minimum inhibiting concentration) P. vulgaris” value in [8] (setting [14]) is on record as 1,250 μmol/100 ml test solution. Further, in [9], the “growth of M. terrae after action time 15'” value is “+++”, the “growth of M. terrae after action time 30'” value is “++”, the “growth of M. terrae after action time 60'” value is reported as “+” and the “growth of M. terrae after action time 120'” value is “E”. Further, the “MIC (minimum inhibiting concentration) P. funi.” value in [10] (setting [14]) is listed as 313 μmol/100 ml test solution. Besides, the “Average value of RF (reduction factors)” value in assay [11] is 1.9 log stages. Also, the “MIC (minimum inhibiting concentration) S. aureus” value in assay [12] (setting [14]) is given as 39 μmol/100 ml test solution. Also, the “MIC (minimum inhibiting concentration) C. albicans” value in [13] (setting [14]) is reported as 313 μmol/100 ml test solution.
